Biological target: T1, Human GPR120 short form (Homo sapiens, UniProt Q5NUL3)
T1 construct: expressed in transfected cells
T1 sequence (Q5NUL3 1-361): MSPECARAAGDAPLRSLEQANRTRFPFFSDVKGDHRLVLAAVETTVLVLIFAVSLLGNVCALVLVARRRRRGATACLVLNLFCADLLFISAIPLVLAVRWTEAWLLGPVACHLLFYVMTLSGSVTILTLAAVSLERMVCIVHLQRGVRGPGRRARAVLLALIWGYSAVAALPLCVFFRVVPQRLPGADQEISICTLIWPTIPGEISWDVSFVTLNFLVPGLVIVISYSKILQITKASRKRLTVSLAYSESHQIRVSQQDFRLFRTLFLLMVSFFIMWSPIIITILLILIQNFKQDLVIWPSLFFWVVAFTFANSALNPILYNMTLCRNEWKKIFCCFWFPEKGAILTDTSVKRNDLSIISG
Assay: Human GPR120 in Calcium Flux Assay, Procedure Calcium A (2500 cells/well)
Assay type: cell-based
Method in brief: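 HEK293 cells stably expressing GPR120 short isoform, 2500 cells/well, serum-starved 1 h, loaded with Fluo-4 NW plus probenecid (30 min 37 °C, 15 min RT). Compounds prepared at 0.012–100 μM, 0.2% DMSO final. FLIPR calcium signal over 300 s as Fmax−Fmin; EC50 from variable-slope fit (Hill <2).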

Compound | EC50 [nM]
Cc1c(CCC(=O)O)ccc(OCc2cc(Cl)cc3cnn(C)c23)c1C [Compound 7, 3-{4-[(5-Chloro-1-methyl-1H-indazol-7-yl)methoxy]-2,3-dimethylphenyl}propanoic acid] | 124
CCCc1cc2cc(C(F)(F)F)cc(COc3ccc(CCC(=O)O)c(C)c3C)c2o1 [Compound 37, 3-(2,3-Dimethyl-4-{[2-propyl-5-(trifluoromethyl)-1-benzofuran-7-yl]methoxy}phenyl)propanoic acid] | 43
CCc1cc2cc(Cl)c(OC(F)F)c(COc3ccc(CCC(=O)O)c(C)c3C)c2o1 [Compound 69, 3-(4-{[5-Chloro-6-(difluoromethoxy)-2-ethyl-1-benzofuran-7-yl]methoxy}-2,3-dimethylphenyl)propanoic acid] | 45
Cc1cc2cc(OC(F)(F)F)cc(COc3ccc(CCC(=O)O)c(C)c3C)c2o1 [Compound 36, 3-(2,3-Dimethyl-4-{[2-methyl-5-(trifluoromethoxy)-1-benzofuran-7-yl]methoxy}phenyl)propanoic acid] | 10
CCOc1cc(COc2ccc(CCC(=O)O)c(C)c2C)c2oc(CC)cc2c1 [Compound 29, 3-{4-[(5-Ethoxy-2-ethyl-1-benzofuran-7-yl)methoxy]-2,3-dimethylphenyl}propanoic acid] | 107
Cc1cc2cc(Cl)cc(COc3c(F)cc(CCCO)cc3F)c2s1 [Compound 93, 3-{4-[(5-Chloro-2-methyl-1-benzothiophen-7-yl)methoxy]-3,5-difluorophenyl}propan-1-ol] | 1600
CCc1cc2cc(Cl)c(OCC(C)C)c(COc3ccc(CCC(=O)O)c(C)c3C)c2o1 [Compound 67, 3-(4-{[5-Chloro-2-ethyl-6-(2-methylpropoxy)-1-benzofuran-7-yl]methoxy}-2,3-dimethylphenyl)propanoic acid] | 93
CCc1cc2cc(OC(F)(F)F)cc(COc3ccc(CCC(=O)O)c4c3CCC4)c2o1 [Compound 52, 3-(7-{[2-Ethyl-5-(trifluoromethoxy)-1-benzofuran-7-yl]methoxy}-2,3-dihydro-1H-inden-4-yl)propanoic acid] | 29
Cc1cc2cc3c(c(COc4ccc(CCC(=O)O)c(C)c4C)c2o1)OCO3 [Compound 82, 3-{2,3-Dimethyl-4-[(6-methylfuro[2,3-f][1,3]benzodioxol-4-yl)methoxy]phenyl}propanoic acid] | 153
CCc1cc2cc(Cl)cc(COc3ccc(CCC(=O)O)c(C)c3C)c2o1 [Compound 11, 3-{4-[(5-Chloro-2-ethyl-1-benzofuran-7-yl)methoxy]-2,3-dimethylphenyl}propanoic acid] | 23
Cc1cc2cc(Cl)c(C)c(COc3ccc(CCC(=O)O)c(C)c3C)c2o1 [Compound 85, 3-{4-[(5-Chloro-2,6-dimethyl-1-benzofuran-7-yl)methoxy]-2,3-dimethylphenyl}propanoic acid] | 15
CCc1cc2cc(Cl)c(C)c(COc3ccc(CCC(=O)O)c(C)c3C)c2o1 [Compound 40, 3-{4-[(5-Chloro-2-ethyl-6-methyl-1-benzofuran-7-yl)methoxy]-2,3-dimethylphenyl}propanoic acid] | 34
CCOc1ccc2cc(CC)oc2c1COc1ccc(CCC(=O)O)c(C)c1C [Compound 66, 3-{4-[(6-Ethoxy-2-ethyl-1-benzofuran-7-yl)methoxy]-2,3-dimethylphenyl}propanoic acid] | 77
Cc1cc2cc3c(c(COc4ccc(CCC(=O)O)c(C)c4C)c2o1)OC(F)(F)O3 [Compound 89, 3-{4-[(2,2-Difluoro-6-methylfuro[2,3-f][1,3]benzodioxol-4-yl)methoxy]-2,3-dimethylphenyl}propanoic acid] | 17
CCc1cc2cc(F)cc(COc3c(F)cc(CCC(=O)O)cc3F)c2o1 [Compound 17, 3-{4-[(2-Ethyl-5-fluoro-1-benzofuran-7-yl)methoxy]-3,5-difluorophenyl}propanoic acid] | 345
Cc1c(CCC(=O)O)ccc(OCc2cc(OC(F)(F)F)cc3cc(C=CF)oc23)c1C (mixture of isomers) [Compound 97, 3-(4-{[2-(2-Fluoroethenyl)-5-(trifluoromethoxy)-1-benzofuran-7-yl]methoxy}-2,3-dimethylphenyl)propanoic acid] | 20
Cc1c(CCC(=O)O)ccc(OCc2cc(Cl)cc3cc(CC(F)F)oc23)c1C [Compound 87, 3-(4-{[5-Chloro-2-(2,2-difluoroethyl)-1-benzofuran-7-yl]methoxy}-2,3-dimethylphenyl)propanoic acid] | 79
Cc1oc2cc(Cl)cc(COc3ccc(CCC(=O)O)c(C)c3C)c2c1C [Compound 80, 3-{4-[(6-Chloro-2,3-dimethyl-1-benzofuran-4-yl)methoxy]-2,3-dimethylphenyl}propanoic acid] | 151
Cc1cc2cc(F)cc(COc3ccc(CCC(=O)O)c(C)c3C)c2o1 [Compound 2, 3-{4-[(5-Fluoro-2-methyl-1-benzofuran-7-yl)methoxy]-2,3-dimethylphenyl}propanoic acid] | 51
Cc1cc2cc(Cl)cc(COc3ccc(CCC(=O)O)c(C)c3C)c2o1 [Compound 78, 3-{4-[(5-Chloro-2-methyl-1-benzofuran-7-yl)methoxy]-2,3-dimethylphenyl}propanoic acid] | 20
Cc1c(CCC(=O)O)ccc(OCc2cc(F)cc3cc(C(F)(F)F)oc23)c1C [Compound 4, 3-(4-{[5-Fluoro-2-(trifluoromethyl)-1-benzofuran-7-yl]methoxy}-2,3-dimethylphenyl)propanoic acid] | 279
Cc1c(CCC(=O)O)ccc(OCc2cc(F)cc3cc(C(C)C)oc23)c1C [Compound 22, 3-(4-{[5-Fluoro-2-(1-methylethyl)-1-benzofuran-7-yl]methoxy}-2,3-dimethylphenyl)propanoic acid] | 166
Cc1nc2cc(Cl)cc(COc3ccc(CCC(=O)O)c(C)c3C)c2o1 [Compound 84, 3-{4-[(5-Chloro-2-methyl-1,3-benzoxazol-7-yl)methoxy]-2,3-dimethylphenyl}propanoic acid] | 131
CC#Cc1cc(COc2ccc(CCC(=O)O)c(C)c2C)c2oc(C)cc2c1 [Compound 83, 3-{2,3-Dimethyl-4-[(2-methyl-5-prop-1-yn-1-yl-1-benzofuran-7-yl)methoxy]phenyl}propanoic acid] | 51
CCc1cc2cc(OC(F)(F)F)cc(COc3ccc(CCC(=O)O)c(C)c3C)c2o1 [Compound 12, 3-(4-{[2-Ethyl-5-(trifluoromethoxy)-1-benzofuran-7-yl]methoxy}-2,3-dimethylphenyl)propanoic acid] | 39
Cc1c(CCC(=O)O)ccc(OCc2cc(F)cc3cc(CC(C)C)oc23)c1C [Compound 23, 3-(4-{[5-Fluoro-2-(2-methylpropyl)-1-benzofuran-7-yl]methoxy}-2,3-dimethylphenyl)propanoic acid] | 339
Cc1cc2cc(Cl)cc(COc3ccc(CCC(=O)O)c(C)c3C)c2s1 [Compound 91, 3-{4-[(5-Chloro-2-methyl-1-benzothiophen-7-yl)methoxy]-2,3-dimethylphenyl}propanoic acid] | 1920

Source: patent US9562053B2, “Benzo-fused heterocyclic derivatives useful as agonists of GPR120” (Janssen Pharmaceutica NV, priority 2013, dated 2017)
